Source: patent US9656990B2, “Cathepsin cysteine protease inhibitors” (Merck Sharp & Dohme Corp., priority 2014, dated 2017)

Key:
human cathepsin F = target: T1, human cathepsin F (Homo sapiens, UniProt Q9UBX1); test: Cathepsin F Assay; type: biochemical; settings: IP from dose response curve; Z-Phe-Arg-AMC substrate, pH 5.5; read-out: hCat F (IP (nM))
T1 sequence (Q9UBX1 271-484): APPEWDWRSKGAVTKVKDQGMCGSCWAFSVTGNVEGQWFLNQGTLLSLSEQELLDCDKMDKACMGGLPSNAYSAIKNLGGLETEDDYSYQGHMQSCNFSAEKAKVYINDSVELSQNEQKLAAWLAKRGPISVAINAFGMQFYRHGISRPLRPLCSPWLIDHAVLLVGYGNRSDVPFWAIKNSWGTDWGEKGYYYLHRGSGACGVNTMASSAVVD
Outline: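 Human cathepsin F (10 nM) preincubated 15 min at room temperature with compounds in 50 mM MES pH 5.5, 2.5 mM EDTA, 2.5 mM DTT, 10% DMSO. Z-Phe-Arg-AMC (8 μM) added; AMC release read by fluorescence (Ex 360/Em 460 nm) over 20 min, inhibition fit to dose-response model.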

human cathepsin K = human cathepsin K (UniProt P43236, Y175D/V274L, species not given); test: Cathepsin K Assay; type: biochemical; settings: IP from dose response curve; Z-Leu-Arg-AMC substrate, pH 5.5; read-out: hrbCat K (IP (nM))

| Compound | IC50 (human cathepsin F) [nM] | IC50 (human cathepsin K) [nM] |
| --- | --- | --- |
| Cc1c(-c2ccc(N3CCS(=O)(=O)CC3)cc2)c([C@@H]2CCCC[C@H]2C(=O)NC2(C#N)CC2)nn1-c1ncccc1F [Example 41, (1R,2R)-N-(1-cyanocyclopropyl)-2-(4-(4-(1,1-dioxidothiomorpholino)phen-yl)-1-(3-fluoropyridin-2-yl)-5-methyl-1H-pyrazol-3-yl)cyclohexanecarboxamide] | 5390 | 8.5 |
| N#CC1(NC(=O)[C@@H]2CC3CC3C[C@H]2c2nn(-c3ccc(Cl)cn3)cc2-c2ccc(N3CCS(=O)(=O)CC3)cc2)CC1 (single isomer, unassigned) [Example 154, (1R,3R,4R,6S) or (1S,3R,4R,6R)-4-(1-(5-chloropyridin-2-yl)-4-(4-(1,1-dioxidothiomorpholino)phen-yl)-1H-pyrazol-3-yl)-N-(1-cyanocyclopropyl)bicyclo [4.1.0]heptane-3-carboxamide] | 279 | 0.74 |
| N#CC1(NC(=O)[C@@H]2CCCC[C@H]2c2nn(-c3ccccc3Cl)cc2-c2ccc(N3CCS(=O)(=O)CC3)cc2)CC1 [Example 102, (1R,2R)-2-(1-(2-chlorophenyl)-4-(4-(1,1-dioxidothiomorpholino)phen-yl)-1H-pyrazol-3-yl)-N-(1-cyanocyclopropyl)cyclohex-anecarboxamide] | 643 | 2.9 |
| N#CN=S1(=O)CCN(c2ccc(-c3cn(-c4ccc(F)cc4)nc3[C@@H]3CCCC[C@H]3C(=O)NC3(C#N)CC3)cc2)CC1 [Example 19, (1R,2R)-N-(1-cyanocyclopropyl)-2-(4-(4-(1-(cyanoimino)-1-oxidothiomorpholino)phenyl)-1-(4-fluorophenyl)-1H-pyrazol-3-yl)cyclohexanecarboxamide] | 809 | 2.2 |
| COc1ccc(-n2cc(-c3ccc(N4CCS(=O)(=O)CC4)cc3)c([C@@H]3CCCC[C@H]3C(=O)NC3(C#N)CC3)n2)nn1 [Example 162, (1R,2R)-N-(1-cyanocyclopropyl)-2-(4-(4-(1,1-dioxidothiomorpholino)phen-yl)-1-(6-methoxypyridazin-3-yl)-1H-pyrazol-3-yl)cyclohexanecarboxamide] | 654 | 0.84 |
| CC(=O)N1CC(c2ccc(-c3cn(-c4ccc(F)cc4)nc3[C@@H]3CCCC[C@H]3C(=O)NC3(C#N)CC3)cc2)C1 [Example 134, (1R,2R)-2-(4-(4-(1-acetylazetidin-3-yl)phenyl)-1-(4-fluorophenyl)-1H-pyrazol-3-yl)-N-(1-cyanocyclopropyl)cyclohex-anecarboxamide] | 210 | 1.57 |
| CC1(C)CCC(C(=O)NC2(C#N)CC2)C(c2nn(-c3ccc(F)cc3)cc2-c2ccc(N3CCS(=O)(=O)CC3)cc2)C1 [Example 117, (1S,2S, or 1R,2R)-N-(1-cyanocyclopropyl)-2-(4-(4-(1,1-dioxidothiomorpholino)phen-yl)-1-(4-fluorophenyl)-1H-pyrazol-3-yl)-4,4-dimethylcyclohexanecarbox-amide] | 1570 | 13.9 |
| CS(=O)(=O)c1ccc(-c2cn(-c3ccccc3)nc2C2CCC(F)(F)CC2C(=O)NCC#N)cc1 (racemic) [Example 76, (1R,2R and 1S,2S)-N-(cyanomethyl)-5,5-difluoro-2-(4-(4-(methylsulfonyl)phenyl)-1-phenyl-1H-pyrazol-3-yl)cyclohexanecarboxamide] | 11 | 0.8 |
| N#CC1(NC(=O)[C@@H]2CC3CC3C[C@H]2c2nn(-c3ccc(F)cc3)cc2-c2ccc(N3CCS(=O)(=O)CC3)cc2)CC1 (single isomer, unassigned) [Example 4, (1R or 1S,3R,4R,6S or 6R)—N-(1-Cyanocyclopropyl)-4-(4-(4-(1,1-dioxidothiomorpholino)phenyl)-1-(4-fluorophenyl)-1H-pyrazol-3-yl)bicyclo[4.1.0]heptane-3-carboxamide] | 258 | 0.93 |
| C[C@@H](C#N)NC(=O)[C@@H]1C[C@@H](F)CC[C@H]1c1nn(-c2ncccc2F)cc1-c1ccc(N2CCS(=N)(=O)CC2)cc1 [Example 57, (1R,2R,5S)-N-((S)-1-cyanoethyl)-5-fluoro-2-(1-(3-fluoropyridin-2-yl)-4-(4-(1-imino-1-oxidothiomorpholino)phenyl)-1H-pyrazol-3-yl)cyclohexanecarboxamide] | 7770 | 8.3 |
| C[C@@H](C#N)NC(=O)[C@@H]1CCC(F)(F)C[C@H]1c1nn(-c2ncccc2F)cc1-c1ccc(N2CCS(=O)(=O)CC2)cc1 [Example 34, (1R,2R)-N-((S)-1-cyanoethyl)-2-(4-(4-(1,1-dioxidothiomorpholino)phen-yl)-1-(3-fluoropyridin-2-yl)-1H-pyrazol-3-yl)-4,4-difluorocyclohexanecarbox-amide] | 2830 | 5.4 |
| N#CC1(NC(=O)[C@@H]2CCCC[C@H]2c2nn(-c3ccccn3)cc2-c2ccc(N3CCS(=O)(=O)CC3)cc2)CC1 [Example 142, (1R,2R)-N-(1-cyanocyclopropyl)-2-(4-(4-(1,1-dioxidothiomorpholino)phen-yl)-1-(pyridin-2-yl)-1H-pyrazol-3-yl)cyclohexanecarboxamide] | 232 | 0.52 |
| Cn1cc(-n2cc(-c3ccc(N4CCS(=O)(=O)CC4)cc3)c([C@@H]3CCCC[C@H]3C(=O)NC3(C#N)CC3)n2)cn1 [Example 171, (1R,2R)-N-(1-cyanocyclopropyl)-2-(4-(4-(1,1-dioxidothiomorpholino)phen-yl)-1′-methyl-1′H-[1,4′-bipyrazol]-3-yl)cyclohexanecarboxamide] | 2760 | 3.38 |
| COc1cccc(-n2cc(-c3ccc(N4CCS(=O)(=O)CC4)cc3)c([C@@H]3CCCC[C@H]3C(=O)NC3(C#N)CC3)n2)c1 [Example 2, (1R,2R)—N-(1-Cyanocyclopropyl)-2-(4-(4-(1,1-dioxidothiomorpholino)phenyl)-1-(3-methoxyphenyl)-1H-pyrazol-3-yl)cyclohexanecarboxamide] | 494 | 0.99 |
| C[C@@H](C#N)NC(=O)[C@@H]1C[C@@H](F)CC[C@H]1c1nn(-c2ccc(F)cn2)cc1-c1ccc(N2CCS(=N)(=O)CC2)cc1 [Example 60, (1R,2R,5S)-N-((S)-1-cyanoethyl)-5-fluoro-2-(1-(5-fluoropyridin-2-yl)-4-(4-(1-imino-1-oxidothiomorpholino)phenyl)-1H-pyrazol-3-yl)cyclohexanecarboxamide] | 674 | 1.43 |
| N#CC1(NC(=O)[C@@H]2CC(F)(F)CC[C@H]2c2nn(-c3ccc(F)cn3)c(CO)c2-c2ccc(N3CCS(=O)(=O)CC3)cc2)CC1 [Example 70, (1R,2R)-N-(1-cyanocyclopropyl)-2-(4-(4-(1,1-dioxidothiomorpholino)phen-yl)-1-(5-fluoropyridin-2-yl)-5-(hydroxymethyl)-1H-pyrazol-3-yl)-5,5-difluorocyclohexanecarbox-amide] | 185 | 1.9 |
| Cc1c(-c2ccc(N3CCS(=O)(=O)CC3)cc2)c([C@@H]2CCCC[C@H]2C(=O)N[C@@H](C)C#N)nn1-c1ncccc1F [Example 42, (1R,2R)-N-((S)-1-cyanoethyl)-2-(4-(4-(1,1-dioxidothiomorpholino)phen-yl)-1-(3-fluoropyridin-2-yl)-5-methyl-1H-pyrazol-3-yl)cyclohexanecarboxamide] | 1990 | 3.62 |
